Test results from patent US11117931B2, “Antimicrobial peptide derived from Hp1404 peptide and uses thereof” (priority 2017, dated 2021).
Where no end group is shown, it is not given here.

Key:
[1] = test system: erythrocytes of a mouse (Balb/c); experiment: Hemolytic activity; type: cell-based
Protocol: To compare the cytotoxicity among the peptides that are produced by the method of Example 1, erythrocyte hemolytic activity of the synthesized peptide was measured.
Specifically, erythrocytes of a mouse (Balb/c, 6 week old, female) were diluted in physiological saline (PBS, pH 7.0) to have concentration of 8%, and then subjected to a treatment with Hp1404, Hp1404-T1, Hp1404-T1a, Hp1404-T1b, Hp1404-T1c, Hp1404-T1d or Hp1404-T1e, each at concentration of 6.25, 12.5, 25.0, 50.0, 100.0 and 200.0 μM/well, respectively, followed by a reaction for 1 hour at 37° C. After that, the amount of hemoglobin contained in a supernatant collected by centrifuge at 1,000×g was determined by measuring the absorbance at a wavelength of 414 nm. As a control group to be used as a reference for cell disruption level, the supernatant collected by a treatment with 1% Triton X-100 (Sigma, USA) and a reaction for 1 hour at 37° C. was used to measure the absorbance. By setting the resulting absorbance value at 100%, the hemolytic activity of each peptide was calculated using the following mathematical formula 1. Erythrocyte disrupting ability (hemolysis) (%)=(Absorbance A−Absorbance B)/(Absorbance C−Absorbance B)×100 [Mathematical formula 1] (in the above formula, Absorbance A indicates the absorbance of a reaction solution treated with each peptide, in which the absorbance is measured at a wavelength of 414 nm; Absorbance B indicates the absorbance of a reaction solution treated with PBS, in which the absorbance is measured at a wavelength of 414 nm; and Absorbance C indicates the absorbance of a reaction solution treated with 1% Triton X-100, in which the absorbance is measured at a wavelength of 414 nm).

[2] = Cytotoxicity in normal cell line (MTT); type: cell-based; details: human, HaCaT keratinocytes, read-out: Cell survival ability; for viability at 24 h, 6.25 µM: peptide concentration 6.25 μM; for viability at 24 h, 12.5 µM: peptide concentration 12.5 μM; for viability at 24 h, 25 µM: peptide concentration 25 μM; for viability at 24 h, 50 µM: peptide concentration 50 μM; for viability at 24 h, 100 µM: peptide concentration 100 μM; for viability at 24 h, 200 µM: peptide concentration 200 μM, HaCaT
Protocol: To determine the cytotoxicity of the peptide produced by the method of Example 1 in normal cell line, toxicity was measured by using human keratinocytes (HaCaT cell line, Dr. N E. Fusenig, Heidelberg, Germany).
Specifically, HaCaT cells which have been cultured in DMEM medium containing 10% FBS (Fetal Bovine Serum) were aliquoted in a 96-well plate to have 2×10^5 cells per well. After culturing them for 24 hours, the cells were subjected to a treatment with Hp1404, Hp1404-T1, Hp1404-T1a, Hp1404-T1b, Hp1404-T1c, Hp1404-T1d, or Hp1404-T1e, each at concentration of 6.25, 12.5, 25.0, 50.0, 100.0 or 200.0 μM/well, followed by reaction for 24 hours in a 5% CO2 incubator. After 24 hours, a reaction solution containing 0.5 mg/ml MTT (Thiazolyl Blue Tetrazolium Bromide) dissolved in physiological saline (PBS) was added in an amount of 100 μl to each well and the reaction was allowed to occur for 4 hours. After that, the supernatant was removed, and, by dissolving MTT crystals that are formed by adding 200 μl of DMSO (dimethyl sulfoxide), the absorbance at 560 nm was measured to determine the cell survival ability.

[3] = Stability against trypsin enzyme (RP-HPLC); type: in vitro ADME; details: 20 nM trypsin, 37° C., read-out: amount of remaining peptide
Protocol: To determine whether or not the peptides prepared by the method of Example 1 have stability against an enzyme, RP-HPLC (reverse-phase HPLC) was carried out. Specifically, 20 μg of the peptide was reacted with 100 μl of trypsin at concentration of 20 nM for 1 to 2 hours at 37° C. After the reaction, 20 μl of the reaction product was applied to RP-HPLC, and the amount of remaining peptide was examined.

[4] = test system: lipopolysaccharide (LPS) isolated from P. aeruginosa; experiment: Binding ability between lipopolysaccharide (LPS) and peptide; details: peptide at 1×MIC
Protocol: By using the peptides prepared by the method of Example 1, binding to lipopolysaccharide (LPS), which is a constitutional component of a cell wall of Gram-negative bacteria, was examined. LPS used in the present invention was isolated from P. aeruginosa. Lipopolysacchride (0 to 100 μg/ml) was diluted with 10 mM sodium phosphate buffer (pH 7.2), reacted with each peptide at a concentration of 1× or 2×MIC, and then cultured with the bacteria at 2×10^5 CFU/ml. By measuring the absorbance at 600 nm, the binding ability to the peptide was determined. Additionally, after reacting 0.1% […] with the peptide (40 μM) in an incubator, the secondary structure was examined by circular dichroism (CD) spectroscopy.

[5] = test system: S. aureus or P. aeruginosa membrane; experiment: Flow cytometry with propidium iodide; type: cell-based; details: 2×MIC, 1 hour at 37° C.
Protocol: Specifically, S. aureus or P. aeruginosa was treated for 1 hour at 37° C. with the mother peptide Hp1404, or Hp1404-T1c, Hp1404-T1d or Hp1404-T1e peptide (at concentration of 2×MIC). After that, the supernatant was removed by centrifuge (10,000 rpm) and stained with propidium iodide (PI, concentration of 10 μg/ml) for 30 minutes at 4° C. Thereafter, unbound propidium iodide was removed by centrifuge, and the problem of cell aggregation phenomenon was solved by adding physiological saline (PBS) in an amount of 1 ml.

plasmid DNA (pRSETB) = experiment: Binding between antimicrobial peptide and DNA (gel electrophoresis); details: peptide/DNA ratio 0.25:1 to 4:1, 10 minutes at 37° C.
Protocol: To figure out the working mechanism of the synthetic peptides of the present invention for showing the antimicrobial activity, electrophoresis was carried out to examine the possible binding of synthetic peptides, i.e., Hp1404, […], Hp1404-T1d and Hp1404-T1e, to DNA as an internal material of bacteria.
Specifically, after reacting the plasmid DNA (pRSETB, 260 ng) with the peptide at different ratio (i.e., peptide/DNA ratio is as follows for lane number 1 to lane number 8: DNA only, 0.25:1, 0.5:1, 1:1, 1.5:1, 2:1, 3:1, and 4:1. respectively) for 10 minutes at 37° C., they were subjected to electrophoresis using 1% agarose gel followed by ethidium bromide (EtBr) staining and UV visualization.

E. coli = experiment: MIC, E. coli; type: cell-based, Escherichia coli; details: E. coli (ATCC 25922), 18 hours at 37° C.
Excerpt: (§1) To compare the antimicrobial activity among the peptides produced by the method of Example 1, the inventors of the present invention measured the minimal growth inhibitory concentration (MIC), which is minimum concentration of the peptide showing no dissociation of bacterial cells.
(§2) Specifically, the bacterial strain described in the following Table 2 was purchased and cultured to a mid-log phase in each medium with a composition suitable for each strain. Then, after dilution to bacterial cell concentration of 2×10^4 cells/100 μl, the cells were inoculated to a microtiter plate (NUNC, USA). Thereafter, Hp1404-T1, Hp1404-T1a, Hp1404-T1b, Hp1404-T1c, Hp1404-T1d or Hp1404-T1e peptide which has been synthesized in Example 1 above was subjected to serial dilution, ½ times for each, with BSA (bovine serum albumin) solution in a 96-well plate. After adding the cells to a plate, the cells were cultured for 18 hours at 37° C. By using a microtiter plate reader (Merck Elisa reader, Germany), the absorbance was measured at a wavelength of 600 nm to determine the MIC value of each bacterial strain. As a control group, Hp1404 as a mother peptide was used.

S. aureus = experiment: MIC, S. aureus; type: cell-based, Staphylococcus aureus; details: S. aureus (ATCC 25923), 18 hours at 37° C.
Excerpt: as §1, §2

L. monocytogenes = experiment: MIC, L. monocytogenes; type: cell-based, Listeria monocytogenes; details: L. monocytogenes (KCTC 3710), 18 hours at 37° C.
Excerpt: as §1, §2

[6] = test system: Pseudomonas aeruginosa strain 1034; experiment: In vivo antimicrobial activity, infected skin wound; parameters: species or system BALB/c mouse
Protocol: By using Hp1404-T1e found to have the most excellent antimicrobial activity among the peptides that are prepared by the method of Example 1, in vivo antimicrobial activity was measured. Specifically, among the Pseudomonas aeruginosa strains, strain 1034 was selected and tested. The strain was prepared by washing 3 times with PBS buffer. Ciprofloxacin antibiotic was used as a control group. A BALB/c mouse (6 week old) was shaved clean and a wound with pre-determined size was created thereon. Then, the wound site was injected intracutaneously with Pseudomonas aeruginosa strain 1034 ([…], 2×10^5 CFU/ml). After the bacterial infection, the peptide and antibiotic, each prepared at a concentration of 0.1 mg/ml and 0.2 mg/ml, respectively, were intracutaneously injected, and the observation was made everyday. On each day, the skin tissues were sampled and smeared on an NB solid medium. The smeared medium was incubated in an incubator for 18 hours, and the number of grown colonies was counted and expressed in %.

| Molecule | Erythrocyte disrupting ability ([1]; peptide concentration 6.25 μM) | Erythrocyte disrupting ability ([1]; peptide concentration 12.5 μM) | Erythrocyte disrupting ability ([1]; peptide concentration 25 μM) | Erythrocyte disrupting ability ([1]; peptide concentration 50 μM) | Erythrocyte disrupting ability ([1]; peptide concentration 100 μM) | viability at 24 h, 6.25 µM [2] | viability at 24 h, 12.5 µM [2] | viability at 24 h, 25 µM [2] | viability at 24 h, 50 µM [2] | viability at 24 h, 100 µM [2] | Minimal inhibitory concentration (E. coli) | Minimal inhibitory concentration (S. aureus) | Minimal inhibitory concentration (L. monocytogenes) | viability at 24 h, 200 µM [2] | other results |
| --- | --- | --- | --- | --- | --- | --- | --- | --- | --- | --- | --- | --- | --- | --- | --- |
| ILKKLLKGVKSI-NH2 [Hp1404-T1c] | 0% | 0% | 0% | 0% | 0% | 100% | 100% | 100% | 51.3% | 48.6% | – | – | – | – | remaining at 1 h, 200 μg/mL ([3]; reaction for 1 hour): ≥ 80%; remaining at 2 h, 200 μg/mL ([3]; reaction for 2 hours): 80%; binding to LPS, rank order [4]: binding to LPS increases in order of Hp1404-T1e, Hp1404-T1d, Hp1404-T1c, and Hp1404; propidium iodide fluorescence signal shift (membrane damage) [5]: no such shift of fluorescence signal; binding to DNA (plasmid DNA (pRSETB)): did not bind to any DNA |
| ILGKLWEGVKSI-NH2 [Hp1404-T1] | 0% | 0% | 0% | 0% | 0% | 100% | 100% | 100% | 100% | 100% | >25 µM | >25 µM | >25 µM | 100% | – |
| ILKKLWEGVKSI-NH2 [Hp1404-T1a] | 0% | 0% | 0% | 0% | 0% | 100% | 100% | 100% | 100% | 100% | – | – | – | 30.7% | – |
| ILKKLLEGVKSI-NH2 [Hp1404-T1b] | 0.07% | 0.19% | 0% | 0% | 0% | 100% | 100% | 100% | 100% | 80.9% | >25 µM | >25 µM | >25 µM | 31.9% | – |
| O=C(O)c1cn(C2CC2)c2cc(N3CCNCC3)c(F)cc2c1=O [ciprofloxacin, reference compound] | – | – | – | – | – | – | – | – | – | – | – | – | – | – | wound healing ([6]; 0.1 mg/ml and 0.2 mg/ml, intracutaneous, observed everyday): no wound healing at all; number of colonies, compared with peptide treatment ([6]; treated after the bacterial infection): higher than that obtained from the peptide treatment condition |
